Data set [1] deals with T1, Orexin/Hypocretin receptor type 1 (Homo sapiens, UniProt O43613).
T1 sequence (O43613 whole entry): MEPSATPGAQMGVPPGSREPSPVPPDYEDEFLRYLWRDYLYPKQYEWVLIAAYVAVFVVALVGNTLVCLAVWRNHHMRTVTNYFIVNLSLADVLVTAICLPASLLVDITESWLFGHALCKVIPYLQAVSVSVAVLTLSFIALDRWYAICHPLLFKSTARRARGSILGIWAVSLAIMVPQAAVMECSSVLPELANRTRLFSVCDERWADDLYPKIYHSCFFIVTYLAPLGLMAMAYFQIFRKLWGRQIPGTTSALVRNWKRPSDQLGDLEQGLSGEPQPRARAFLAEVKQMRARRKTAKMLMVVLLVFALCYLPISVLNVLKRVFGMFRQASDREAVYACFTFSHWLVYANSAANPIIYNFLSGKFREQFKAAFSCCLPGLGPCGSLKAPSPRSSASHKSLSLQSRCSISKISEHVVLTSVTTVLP
Description: Binding affinity to OX1R.

Data set [2] concerns the target T1, Orexin/Hypocretin receptor type 1. Description: Antagonist activity at OX1R by FLIPR assay. The class given is functional.
The target in data set [3] is T2, Orexin receptor type 2 (Homo sapiens, UniProt O43614).
T2 sequence (O43614 whole entry): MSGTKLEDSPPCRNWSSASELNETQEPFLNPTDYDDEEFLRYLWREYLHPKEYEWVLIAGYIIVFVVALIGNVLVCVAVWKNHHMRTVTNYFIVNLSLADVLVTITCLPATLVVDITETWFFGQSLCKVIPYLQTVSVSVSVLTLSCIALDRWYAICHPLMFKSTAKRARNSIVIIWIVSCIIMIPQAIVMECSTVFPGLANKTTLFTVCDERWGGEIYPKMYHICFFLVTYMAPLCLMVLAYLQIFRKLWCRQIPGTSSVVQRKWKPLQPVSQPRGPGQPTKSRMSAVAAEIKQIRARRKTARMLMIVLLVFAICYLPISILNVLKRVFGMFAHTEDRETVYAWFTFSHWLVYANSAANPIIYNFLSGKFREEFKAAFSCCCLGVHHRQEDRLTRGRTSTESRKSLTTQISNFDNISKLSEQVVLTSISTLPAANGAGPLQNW
As to the kind of experiment: Antagonist activity at OX2R by FLIPR assay. The class given is functional.

Data set [4] addresses T2, Orexin receptor type 2. As to the kind of experiment: Binding affinity to OX2R.
The test system of the next data set is Canis familiaris. Description: AUC (0 to 24 hrs) in dog at 3 mg/kg, po and 0.125 mg/kg, iv. The class given is ADME, organism-based, Canis lupus familiaris, Plasma. The note with it: in vivo.
The nature of data set [5]: Clearance in dog at 3 mg/kg, po and 0.125 mg/kg, iv. The class given is ADME, organism-based, Canis lupus familiaris. The note with it: in vivo.
Data set [6] has as its system Rattus norvegicus. As to the kind of experiment: AUC (0 to 24 hrs) in Sprague-Dawley rat at 10 mg/kg, po and 2 mg/kg, iv. The class given is ADME, organism-based, Plasma. The note with it: in vivo.
Data set [7] is described as follows: Drug level in Sprague-Dawley rat CSF at 10 mg/kg after 2 hrs. The class given is ADME, organism-based, Cerebrospinal fluid. More on the design: dose 10 mg/kg. The note with it: read-out: Drug uptake.
A short description of data set [8]: Oral bioavailability in Sprague-Dawley rat at 10 mg/kg. The class given is ADME, organism-based. Particulars: in vivo.
Data set [9] is described as follows: Drug level in Sprague-Dawley rat CSF at 30 mg/kg after 2 hrs. On the set-up: dose 30 mg/kg. Particulars: read-out: Drug uptake. The class given is ADME, organism-based, Cerebrospinal fluid.
A short description of data set [10]: Ratio of drug level in CSF to plasma in Sprague-Dawley rat at 30 mg/kg after 2 hrs. The class given is ADME, organism-based. On the set-up: dose 30 mg/kg.
The nature of data set [11]: Oral bioavailability in dog at 3 mg/kg. The class given is ADME, organism-based, Canis lupus familiaris. The note with it: in vivo.
The nature of data set [12]: Drug level in Sprague-Dawley rat CSF at 60 mg/kg after 1 hr. The class given is ADME, organism-based, Cerebrospinal fluid. More on the design: dose 60 mg/kg. Particulars: read-out: Drug uptake.
The nature of data set [13]: Half life in dog at 3 mg/kg, po and 0.125 mg/kg, iv. The class given is ADME, organism-based, Canis lupus familiaris. Particulars: in vivo.
Data set [14] is described as follows: Drug level in Sprague-Dawley rat plasma at 100 mg/kg after 2 hrs administered in PEG400. The class given is ADME, organism-based. On the set-up: dose 100 mg/kg. Particulars: read-out: Drug uptake.
Data set [15] in a line: Drug level in Sprague-Dawley rat plasma at 60 mg/kg after 1 hr. The note with it: read-out: Drug uptake. On the set-up: dose 60 mg/kg. The class given is ADME, organism-based.
The nature of data set [16]: Ratio of drug level in CSF to plasma in Sprague-Dawley rat at 60 mg/kg after 1 hr. The class given is ADME, organism-based. More on the design: dose 60 mg/kg.
Data set [17] in a line: Cmax in Sprague-Dawley rat at 10 mg/kg, po and 2 mg/kg, iv. The class given is ADME, organism-based. The note with it: in vivo.
The nature of data set [18]: Cmax in dog at 3 mg/kg, po and 0.125 mg/kg, iv. The class given is ADME, organism-based, Canis lupus familiaris. The note with it: in vivo.
The nature of data set [19]: Drug level in Sprague-Dawley rat plasma at 30 mg/kg after 2 hrs. The class given is ADME, organism-based. More on the design: dose 30 mg/kg. Particulars: read-out: Drug uptake.
Data set [20] in a line: Clearance in Sprague-Dawley rat at 10 mg/kg, po and 2 mg/kg, iv. The class given is ADME, organism-based. Particulars: in vivo.
Data set [21] can be described thus: Half life in Sprague-Dawley rat at 10 mg/kg, po and 2 mg/kg, iv. The class given is ADME, organism-based. Particulars: in vivo.
Data set [22] can be described thus: Drug level in Sprague-Dawley rat plasma at 10 mg/kg after 2 hrs. The class given is ADME, organism-based. The note with it: read-out: Drug uptake. More on the design: dose 10 mg/kg.
Data set [23] can be described thus: Ratio of drug level in CSF to plasma in Sprague-Dawley rat at 10 mg/kg after 2 hrs. The class given is ADME, organism-based. On the set-up: dose 10 mg/kg.
The test system of data set [24] is Rattus norvegicus. As to the kind of experiment: Effect on sleep-awake pattern in rat assessed as increase in REM sleep at 60 mg/kg/day, po. The class given is functional, organism-based.
In data set [25] the test system is Rattus norvegicus. As to the kind of experiment: Effect on sleep-awake pattern in rat assessed as increase in […] at 60 mg/kg/day, po. The class given is functional, organism-based.
In data set [26] the test system is Rattus norvegicus. As to the kind of experiment: Effect on sleep-awake pattern in rat assessed as decrease in wakefulness at 60 mg/kg/day, po. The class given is functional, organism-based.

SMILES strings stand for the structures. Active and inactive are the calls of the source. The rule behind the calls is not given here.

Broadly, the Ki is a dissociation constant, usually derived from enzyme kinetics or from competition with a known ligand. Read a high Ki as a looser hold on the target. As a reminder, the IC50 is the point on the concentration scale where inhibition reaches its midpoint. A higher IC50 goes with weaker potency in that assay. For orientation: AUC means the area under the concentration-time curve, a measure of exposure. The low end stands for less exposure, the high end for more exposure. As usually defined, the bioavailability is the share of a dose that reaches the circulation, judged against a reference dose that is usually intravenous. Read a high bioavailability as good availability. Usually Kp stands for tissue or fluid exposure divided by exposure in the circulation. A word on the half-life: it is how long it takes for the measured level to halve. Low values mean fast loss, high ones slow loss. For orientation: Cmax means the peak of the concentration-time curve.

As to `Cc1ccc(-n2nccn2)c(C(=O)N2C[C@H]3CC[C@@H]2CCN3c2ncc3ccc(F)cc3n2)c1`, the Ki came out at 0.6 nM in [1] and 2.2 nM at Orexin receptor type 2 [4]. Further, the IC50 turned out to be 125 nM in data set [2] and 140 nM on Orexin receptor type 2 [3].
For the compound `Cc1ccc(-n2nccn2)c(C(=O)N2C[C@@H]3CC[C@H]2CCN3c2ncc3ccc(F)cc3n2)c1`, the Ki in [1] was found to be 7.6 nM; at Orexin receptor type 2 [4] it was 14 nM. Moreover, the IC50 is 800 nM in data set [2] and 740 nM on Orexin receptor type 2 [3].
The like results for `Cc1ccc(-n2nccn2)c(C(=O)N2CC[C@@H]3CC[C@H]2CN3c2ncc3ccc(F)cc3n2)c1` were, in that order, 160 nM, 105 nM, 2300 nM and 1450 nM.
The like results for `Cc1ccc(-n2nccn2)c(C(=O)N2CC[C@H]3CC[C@@H]2CN3c2ncc3ccc(F)cc3n2)c1` were, in that order, 345 nM, 590 nM, 1600 nM and more than 10000 nM.
`O=C(c1cc(Cl)ccc1-n1nccn1)N1C[C@@H]2C[C@H](C1)N(c1ncc3cc(F)ccc3n1)C2`: the figures for the Ki (in [1]; at Orexin receptor type 2 [4]) were 0.4 nM and 0.6 nM, respectively.
On to `Cc1ccc(-n2nccn2)c(C(=O)N2CCCN(c3ncc4ccccc4n3)CC2)c1`, for which the values for the AUC in the data set with Canis familiaris and in the data set with Rattus norvegicus [6] were 0.44 µM·h and 0.19 µM·h, respectively. The compound further had a clearance in [5] of 12 mL/min/kg.
Turning to `Cc1ccc(-n2nccn2)c(C(=O)N2CCC3CCC(C2)N3c2ncc3ccc(F)cc3n2)c1` (racemic), the Ki was 0.9 nM in data set [1] and 0.8 nM at Orexin receptor type 2 [4]. Also, the results for the IC50 (in data set [2]; at Orexin receptor type 2 [3]) were 72 nM and 175 nM, respectively.
For the compound `Cc1ccc(-n2nccn2)c(C(=O)N2C[C@@H]3CC[C@H]2CN(c2ncc4ccc(F)cc4n2)C3)c1` (single isomer, unassigned), the results for the Ki (in data set [1]; on Orexin receptor type 2 [4]) were 2 nM and 62 nM, respectively. In addition, the IC50 in data set [2] came to 46 nM; against Orexin receptor type 2 [3] it was 790 nM.
The like results for `Cc1ccc(-n2nccn2)c(C(=O)N2C[C@H]3CC[C@@H]2CN(c2ncc4ccc(F)cc4n2)C3)c1` (single isomer, unassigned) were, in that order, 10 nM, 2.9 nM, 104 nM and 370 nM.
On to `Cc1ccc(-n2nccn2)c(C(=O)N2C3CCC2CN(c2ncc4ccc(F)cc4n2)CC3)c1` (single isomer, unassigned; 8a) [listing 1 of 2 here], for which the concentration at 2 h in [7] stood at 3 nM; in data set [9] it was 23 nM; in data set [14], 12500 nM; in data set [19], 3100 nM; in data set [22] it was 1100 nM. For the same compound, the AUC in the data set on Canis familiaris was 14.1 µM·h; in the data set with Rattus norvegicus [6], 1.57 µM·h. Besides, the values for the Ki (in [1]; on Orexin receptor type 2 [4]) were 0.6 nM and 0.4 nM, respectively. The bioavailability in [8] was 14%; in data set [11], 100%. Moreover, the results for the clearance in [5] and in data set [20] were 3.6 mL/min/kg and 23 mL/min/kg, respectively. Besides, the Kp at 2 h in [10] worked out at 0.007; in [23], 0.004. The concentration at 1 h worked out at 170 nM in [12] and 14600 nM in data set [15]. Also, the half-life in data set [13] is 1.8 h; in data set [21] it was 1 h. The partition ratio (Kp) at 1 h in data set [16] turned out to be 0.011. Also, the Cmax is 570 nM in data set [17] and 3400 nM in [18]. Besides, the figures for the IC50 (in data set [2]; at Orexin receptor type 2 [3]) were 98 nM and 136 nM, respectively.
Turning to `Cc1ccc(-n2nccn2)c(C(=O)N2C3CCC2CN(c2ncc4ccc(F)cc4n2)CC3)c1` (single isomer, unassigned; 8a) [listing 2 of 2 here], the outcome in the data set on Rattus norvegicus [24], in the data set on Rattus norvegicus [25] and in the data set on Rattus norvegicus [26] was Active.
Take `Cc1ccc(-n2nccn2)c(C(=O)N2C3CCC2CN(c2ncc4ccc(F)cc4n2)CC3)c1` (single isomer, unassigned; 8b): the Ki was 3.7 nM in data set [1] and 6.7 nM on Orexin receptor type 2 [4]. In addition, the values for the concentration for half-maximal inhibition (IC50) (in data set [2]; at Orexin receptor type 2 [3]) were 99 nM and 150 nM, respectively.

(Values after ChEMBL document CHEMBL1177797, “Discovery of 3,9-diazabicyclo[4.2.1]nonanes as potent dual orexin receptor antagonists with sleep-promoting activity in the rat” (Bioorg Med Chem Lett, 2010).)
